PubChem BioAssay (NCI)
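In this assay, cells in 96-well plates receive the compound at five concentrations for 48 hours. Endpoints are linearly interpolated between the surrounding concentrations. TGI denotes the concentration required for complete inhibition of growth.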

Key:
Experiment in all cases: growth of human tumour cells (NCI), 48 h
[1] = tested on: HT29 colon
[2] = tested on: 786-0 renal
[3] = tested on: COLO 205 colon
[4] = tested on: IGROV1 ovarian
[5] = tested on: HCT-15 colon
[6] = tested on: SN12C renal
[7] = tested on: OVCAR-3 ovarian
[8] = tested on: RXF 393 renal
[9] = tested on: EKVX NSCLC
[10] = tested on: HCT-116 colon
[11] = tested on: SK-MEL-5 melanoma
[12] = tested on: SK-MEL-2 melanoma
[13] = tested on: SNB-75 CNS
[14] = tested on: HOP-62 NSCLC
[15] = tested on: A498 renal
[16] = tested on: U251 CNS
[17] = tested on: SF-268 CNS
[18] = tested on: HS 578T breast
[19] = tested on: NCI-H522 lung
[20] = tested on: HCC-2998 colon
[21] = tested on: HOP-92 NSCLC
[22] = tested on: OVCAR-8 ovarian
[23] = tested on: NCI-H460 lung
[24] = tested on: K-562 leukemia
[25] = tested on: OVCAR-4 ovarian
[26] = tested on: MDA-MB-231 breast
[27] = tested on: UO-31 renal
[28] = tested on: UACC-257 melanoma
[29] = tested on: SK-MEL-28 melanoma
[30] = tested on: PC-3 prostate
[31] = tested on: UACC-62 melanoma
[32] = tested on: BT-549 breast
[33] = tested on: OVCAR-5 ovarian
[34] = tested on: TK-10 renal
[35] = tested on: M14 melanoma
[36] = tested on: DU-145 prostate
[37] = tested on: MALME-3M melanoma
[38] = tested on: MDA-N
[39] = tested on: MOLT-4 leukemia
[40] = tested on: SW-620 colon
[41] = tested on: SR leukemia
[42] = tested on: CCRF-CEM leukemia
[43] = tested on: LOX IMVI melanoma
[44] = tested on: NCI/ADR-RES ovarian
[45] = tested on: MDA-MB-435
[46] = tested on: SF-539 CNS
[47] = tested on: NCI-H23 lung
[48] = tested on: MCF7 breast
[49] = tested on: A549 NSCLC
[50] = tested on: SK-OV-3 ovarian
[51] = tested on: RPMI-8226 leukemia
[52] = tested on: CAKI-1 renal
[53] = tested on: ACHN renal
[54] = tested on: SNB-19 CNS
[55] = tested on: KM12 colon
[56] = tested on: SF-295 CNS
[57] = tested on: NCI-H226 lung
[58] = tested on: T-47D breast
[59] = tested on: HL-60(TB) leukemia

CC(=O)OCC1OC(N2C(c3ccccc3)=CC(c3ccco3)C(C#N)=C2S)C(OC(C)=O)C(OC(C)=O)C1OC(C)=O (configuration not stated)
TGI [1]: > 100 µM
TGI [2]: 5.93 µM
TGI [3]: 28.5 µM
TGI [4]: > 67.1 µM
TGI [5]: > 100 µM
TGI [6]: 26.2 µM
TGI [7]: 18.3 µM
TGI [8]: 15.7 µM
TGI [9]: > 52.1 µM
TGI [10]: 33.2 µM
TGI [11]: 17.9 µM
TGI [12]: 65.4 µM
TGI [13]: 8.9 µM
TGI [14]: 19.5 µM
TGI [15]: > 63.3 µM
TGI [16]: 8.6 µM
TGI [17]: > 57.4 µM
TGI [18]: 7.61 µM
TGI [19]: > 39.8 µM
TGI [20]: 48.9 µM
TGI [21]: 26.9 µM
TGI [22]: 12.1 µM
TGI [23]: > 62.2 µM
TGI [24]: > 100 µM
TGI [25]: 9.16 µM
TGI [26]: 8.65 µM
TGI [27]: 29.5 µM
TGI [28]: > 100 µM
TGI [29]: > 75.5 µM
TGI [30]: > 38.6 µM
TGI [31]: 65 µM
TGI [32]: > 100 µM
TGI [33]: 22 µM
TGI [34]: 37.5 µM
TGI [35]: 16.9 µM
TGI [36]: > 88.2 µM
TGI [37]: 13.6 µM
TGI [38]: > 53.9 µM
TGI [39]: > 75.4 µM
TGI [40]: 4.2 µM
TGI [41]: > 37.5 µM
TGI [42]: > 100 µM
TGI [43]: > 46.4 µM
TGI [44]: 39.9 µM
TGI [45]: > 70.5 µM
TGI [46]: 5.35 µM
TGI [47]: 23.7 µM
TGI [48]: > 82.4 µM
TGI [49]: > 65.6 µM
TGI [50]: 59 µM
TGI [51]: > 45 µM
TGI [52]: 34.1 µM
TGI [53]: 24.8 µM
TGI [54]: 38.7 µM
TGI [55]: > 100 µM
TGI [56]: > 70.3 µM
TGI [57]: 24.3 µM
TGI [58]: > 67.9 µM

O=[N+]([O-])c1cccc(-c2ncc3c(n2)-c2ccccc2C3)c1
TGI [1]: > 100 µM
TGI [59]: > 100 µM
TGI [2]: > 100 µM
TGI [3]: > 100 µM
TGI [4]: > 100 µM
TGI [5]: > 100 µM
TGI [6]: > 100 µM
TGI [8]: > 100 µM
TGI [9]: > 100 µM
TGI [10]: > 100 µM
TGI [11]: > 100 µM
TGI [12]: > 100 µM
TGI [13]: > 100 µM
TGI [16]: > 100 µM
TGI [17]: > 100 µM
TGI [18]: > 100 µM
TGI [19]: > 100 µM
TGI [21]: > 100 µM
TGI [22]: > 100 µM
TGI [23]: > 100 µM
TGI [24]: > 100 µM
TGI [25]: > 100 µM
TGI [26]: > 100 µM
TGI [27]: > 100 µM
TGI [28]: > 100 µM
TGI [29]: > 100 µM
TGI [30]: > 100 µM
TGI [31]: > 100 µM
TGI [32]: > 100 µM
TGI [33]: > 100 µM
TGI [34]: > 100 µM
TGI [35]: > 100 µM
TGI [36]: > 100 µM
TGI [37]: > 100 µM
TGI [38]: > 100 µM
TGI [39]: > 100 µM
TGI [40]: > 100 µM
TGI [41]: > 100 µM
TGI [42]: > 100 µM
TGI [44]: > 100 µM
TGI [45]: > 100 µM
TGI [46]: > 100 µM
TGI [47]: > 100 µM
TGI [48]: > 100 µM
TGI [49]: > 100 µM
TGI [50]: > 100 µM
TGI [51]: > 100 µM
TGI [52]: > 100 µM
TGI [53]: > 100 µM
TGI [54]: 72.4 µM
TGI [55]: > 100 µM
TGI [56]: > 100 µM
TGI [57]: > 100 µM
TGI [58]: > 100 µM
